SMILES strings stand for the structures.

The term IC50 denotes the concentration that inhibits the measured activity by half. High values mean weaker potency, low ones greater potency.

This experiment deals with P. falciparum 3D7 growth, pLDH absorbance. The experiment can be described thus: blood-stage malaria parasite growth potency – strain 3D7, dose response (AID 2305).
With `CC(C)Cc1cn(-c2nc(-c3nc4ccccc4[nH]3)cs2)c2ccncc12`, the IC50 turned out to be 90 nM. The value for `CCN(CCCN1CCCC1)c1cc(C)nc(Nc2ccc(Cl)cc2)n1` was 340 nM; that for `CNCCCNCc1ccc(-c2ccc(F)c(Cl)c2)o1` was 750 nM; that for `N#CCCN1CCN(Cc2ccc(-c3ccc(-c4nc5ccc(F)cc5[nH]4)s3)cc2)CC1` was 660 nM.

The compound `CCCN(Cc1nnc(-c2cccs2)o1)C(=O)C1COc2ccccc2O1` (stereo not drawn) gave an IC50 of 850 nM. Turning to `CCN(CCCN1CCCCC1)c1cc(C)nc(Nc2ccc(C(F)(F)F)cc2)n1`, the IC50 amounted to 370 nM.

`Cc1cccc(CN2CCN(c3ncc(C(=O)NC4CC4)cc3Cl)CC2)c1` returned an IC50 of 1310 nM. `CN1CCCN(Cc2cccc(-c3cccc(NC(=O)c4cccc(Cl)c4)c3)c2)CC1` registered an IC50 of 890 nM. For `Cc1sc(NC(=O)c2ccc([N+](=O)[O-])cc2Cl)c(C(N)=O)c1C`, the IC50 is 930 nM.

Regarding `O=C(Nc1ccc(Cl)cc1)c1cc(Cl)cc2[nH]c(C(F)(F)F)nc12`, the IC50 is 130 nM. The compound `Cc1cc(NCCC(=O)Nc2ccccc2)nc(NCC2CCCCC2)n1` gave an IC50 of 840 nM. `COc1cc(-c2[nH]c(-c3ccc(OCCN(C)C)cc3)cc2-c2ccncc2)ccc1Cl` displayed an IC50 of 1790 nM. The value for `CC1(C)CCC(C)(C)c2c1ccc(C1CCN(CCCCNC(=O)c3ccc(-c4ccc(Cl)cc4)cc3)CC1)c2O` was 480 nM; that for `CC[C@H](C)[C@H](NC(=O)[C@H](CC1CCCCC1)[C@H](CC)N(O)C=O)C(=O)Nc1ccccn1` was 180 nM. Compound `COc1ccc(S(=O)(=O)N(CC(=O)NN=C(C)c2cccs2)c2cc(C)cc(C)c2)cc1OC` yielded an IC50 of 140 nM. For `COc1ccc(CNC2CCN(C)CC2)cc1-c1ccc(S(=O)(=O)NCc2ccccc2)c(C)c1` the value was 990 nM; for `CC(C)(C)OC(=O)n1cc(C2CCN(CCCC34CCCc5cccc(c53)NC4=O)CC2)c2ccncc21` (stereo not drawn), 880 nM; for `CCc1cn2c3c(cc(C(=O)N[C@@H](Cc4cc(F)cc(F)c4)[C@H](O)CNC4CCOCC4)cc13)N(C)S(=O)(=O)CC2`, 30 nM. As for `NOCCCOc1ccc(Cl)cc1`, the IC50 came to 570 nM.

`CCC(C)NS(=O)(=O)c1ccc2nc(Nc3ccc(C)cc3)n([C@H](C)C(C)(C)C)c2c1` (stereo partly drawn): the IC50 worked out at 390 nM. Take `CC(C)CC(=O)NC1CCN(Cc2c(-c3cccs3)nc3ccccc3c2C(=O)N[C@@H](C)C2CCCCC2)CC1`: the IC50 came to 820 nM.

`FC(F)(F)c1ccc2c(NCCc3ccccc3)ccnc2c1` showed a 50% inhibitory concentration (IC50) of 1270 nM. In turn, `COc1ccc(CCN(C)CCOc2ccc(NC(=O)c3cccc4c(=O)c5cc(SC)ccc5[nH]c34)cc2)cc1OC` gave an IC50 of 740 nM. For `COc1ccc2[nH]c3ccccc3c(=O)c2c1` the value was 1000 nM.

Consider `C=Cc1cc(OC)c2c(c1)c(=O)oc1c2cc(OC)c2c(O)ccc([C@H]3O[C@H]([C@@H](C)O)[C@H](O)[C@H]3O)c21`, for which the IC50 was found to be 790 nM. On to `COc1cc(-c2nc(-c3ccccc3)c(-c3ccc(C(=O)c4ccc(F)cc4)cc3)[nH]2)cc(OC)c1O`, for which the IC50 was 660 nM. Regarding `CN1CCN(Cc2cc(NC(=O)c3ccc(-c4ccc(Cl)cc4Cl)cc3)ccc2-c2ccccc2)CC1`, the IC50 turned out to be 970 nM. Turning to `CC(CN(C)C)C(=O)Nc1ccc(-c2cccc(-c3nc4ccccc4[nH]3)c2)cc1` (stereo not drawn), the IC50 is 720 nM. The value for `CCOc1ccc(C(=O)Nc2ccc(-c3nc4ccccc4[nH]3)cc2)cc1[N+](=O)[O-]` was 590 nM. `Cn1c(C2C[C@H]3CC[C@H](C2)N3CC2CCC(NC(=O)/C=C/c3ccc(Cl)c(Cl)c3)CC2)nc2ccccc21` (stereo partly drawn) yielded an IC50 of 560 nM. In the case of `Cc1cc(N2CCOCC2)nc2ccc(NC(=O)c3ccc(Cl)c([N+](=O)[O-])c3)cc12`, the IC50 is 1030 nM. `COc1cccc2cc(C(=O)N[C@@H](CC(C)C)C(=O)N[C@H](/C=N/N3CCOC3=O)Cc3ccccc3)oc12` yielded an IC50 of 690 nM. The compound `CO/C(=C\C=C\c1cc2cc(Cl)c(Cl)cc2[nH]1)C(=O)NCCCN1CCCC[C@@H]1C` showed an IC50 of 750 nM.

The values above are taken from PubChem BioAssay AID2305 (GlaxoSmithKline (GSK), 2010).
